# Results published in the RepoRT retention time repository (doi:10.1016/j.jhazmat.2019.121712).
# Experiment: Thermo Scientific Acclaim RSLC 120 C18, 100 × 2.1 mm, 2.2 µm, 30 °C; A: 90% water + 10% methanol + 0.01% formic acid + 5 mM ammonium formate; B: methanol + 0.01% formic acid + 5 mM ammonium formate; gradient (min/%B) 0.1/1 3/39 14/99.9 16/99.9
# Conditions: stereoisomer not certain
row,SMILES,LC retention time [min]
1,Cc1nc(NS(=O)(=O)c2ccc(N)cc2)oc1C,4.11
2,CC(C)NCC(O)COc1ccc(COCCOC(C)C)cc1 (configuration not stated),5.91
3,CCCN(CCC)C(=O)SCc1ccccc1,11.9
4,COC(=O)C1=COC(C)C2CN3CCc4c([nH]c5ccccc45)C3CC12 (configuration not stated),6.66
5,CNC(C)C1CCC(N)C(OC2C(N)CC(N)C(OC3OCC(C)(O)C(NC)C3O)C2O)O1 (configuration not stated),11.6
6,CN(C)S(=O)(=O)c1ccc2c(c1)N(CCCN1CCC(CCO)CC1)c1ccccc1S2,7.39
7,COc1cc2nc(N3CCN(C(=O)c4ccco4)CC3)nc(N)c2cc1OC,5.34
8,CN(C(=O)CN(CCO)CC(=O)N(C)C(C)(C)Cc1ccccc1)C(C)(C)Cc1ccccc1,10.9
9,Cc1ccc2c(-c3ccccc3)nc(=O)n(C(C)C)c2c1,9.61
10,CCOc1cc(CC(=O)NC(CC(C)C)c2ccccc2N2CCCCC2)ccc1C(=O)O (configuration not stated),11.9
11,Cc1c(C(=O)c2cccc3ccccc23)c2cccc3c2n1C(CN1CCOCC1)CO3 (configuration not stated),10.9
12,CCOC(=O)C(CCc1ccccc1)NC(C)C(=O)N1C(C(=O)O)CC2CCCC21 (configuration not stated),8.56
13,CC#CCn1c(N2CCCC(N)C2)nc2c1c(=O)n(Cc1nc(C)c3ccccc3n1)c(=O)n2C (configuration not stated),6.01
14,Cc1nc(N(C)C)nc(OC(=O)N(C)C)c1C,7.77
15,O=C(O)c1cc(N=Nc2ccc(S(=O)(=O)Nc3ccccn3)cc2)ccc1O,6.61
16,CN1CCC23c4c5ccc(O)c4OC2CCCC3C1C5 (configuration not stated),3.84
17,CC=CC(=O)N(CC)C(CC)C(=O)N(C)C (configuration not stated),6.13
18,Cc1ccc(C(=CCN2CCCC2)c2cccc(C=CC(=O)O)n2)cc1,6.66
19,CC1C=CC=CCCC=CC=CC=CC=CC(OC2OC(C)C(O)C(N)C2O)CC2OC(O)(CC(O)C(O)CCC(O)CC(O)CC(O)CC(=O)OC(C)C(C)C1O)CC(O)C2C(=O)O (configuration not stated),10.3

row,SMILES,LC retention time [min]
1,CCOP(=S)(OCC)OP(=S)(OCC)OCC,10.8
2,CN(C)CCOC(c1ccccc1)c1ccccc1,6.63
3,CCCc1nn(C)c2c(=O)[nH]c(-c3cc(S(=O)(=O)N4CCN(C5CCCC5)CC4)ccc3OCC)nc12,9.01
4,CC(Cc1ccccc1)NCCC(c1ccccc1)c1ccccc1 (configuration not stated),8.89
5,CCOc1ccccc1C(N)=O,5.68
6,Cc1cccc2n[nH]nc12,5.83
7,CNC(=O)Oc1cc(C)c(S(C)=O)c(C)c1 (configuration not stated),4.86
8,CC1C2Cc3ccc(O)cc3C1(C)CCN2CCc1ccccc1 (configuration not stated),6.08
9,CC(C)(C)NCC(O)COc1cccc2c1CCCC2=O (configuration not stated),4.84
10,CC(=O)C1CCC2C3CCC4=CC(=O)CCC4(C)C3CCC12C (configuration not stated),11.2
11,CNC(=O)Nc1nc2ccccc2s1,7.13
12,CC(C1=C(CCN(C)C)Cc2ccccc21)c1ccccn1 (configuration not stated),6.86
13,CCOC(=O)c1ccc(N)cc1,6.27
14,CC1(C)CC1C(=O)NC(=CCCCCSCC(N)C(=O)O)C(=O)O (configuration not stated),4.88
15,CCCCCC(C)n1c(C)c(C(=O)c2cccc3ccccc23)c2ccccc21 (configuration not stated),13
16,CCN(CC)CCOC(=O)c1ccc(N)cc1,3.21
17,CNC(=O)ON=C(C)SC,4.16
18,Cc1ccc(N(CC2=NCCN2)c2cccc(O)c2)cc1,5.86
19,CCC=CCC1=C(C)C(OC(=O)C2C(C=C(C)C)C2(C)C)CC1=O (configuration not stated),13.3

row,SMILES,LC retention time [min]
1,CCCCSP(=O)(SCCCC)SCCCC,13.4
2,O=c1[nH]c2ccccc2s1,6.53
3,O=C1NCC(=O)N2C1Cc1c([nH]c3ccccc13)C2c1ccc2c(c1)OCO2 (configuration not stated),7.99
4,NC(=O)c1ccccc1O,4.76
5,CC1=C(C(=O)O)N2C(=O)C(NC(=O)C(N)c3ccccc3)C2SC1 (configuration not stated),4.08
6,CNC(=O)Oc1cc(C)cc(C)c1,7.78
7,CCOC(=O)CCN(Cc1ccccc1)SN(C)C(=O)ON=C(C)SC,10.8
8,C#CC1(OC(C)=O)CCC2C3CCC4=CC(=O)CCC4C3CCC21C (configuration not stated),10.8
9,Cn1c(=O)c2c(ncn2CCCNCC(O)c2cc(O)cc(O)c2)n(C)c1=O (configuration not stated),3.56
10,CC=C(C)C(=O)OC1CC(OC(C)=O)C2(C(=O)OC)COC3C2C12COC(O)(C(=O)OC)C2C(C)(C12OC1(C)C1CC2OC2OC=CC21O)C3O (configuration not stated),7.56
11,CSc1nnc(C(C)(C)C)c(=O)[nH]1,7.46
12,O=C(O)CCCO,1.95
13,CCOc1ccc(NC(C)=O)cc1,5.93
14,CN1CCC23c4c5ccc(O)c4OC2C(=O)CCC3(O)C1C5 (configuration not stated),2.75
15,Cc1ncc([N+](=O)[O-])n1C,4.27
16,CN(C)C(=O)SCCCCOc1ccccc1,10.7
17,c1cc2c(c(NC3=NCCN3)c1)CCC2,4.76
18,CCCc1nc2c(C)cc(-c3nc4ccccc4n3C)cc2n1Cc1ccc(-c2ccccc2C(=O)O)cc1,10.3
19,COC(=O)C1=C(C)NC(C)=C(C(=O)OC)C1c1ccccc1[N+](=O)[O-],8.31
